Reference: PMC9619376 (iScience, 2022)

Tests used:
[1] = molecular target: EBOV VP35_75-185 (native, non GFP-tagged) (Ebola virus - Mayinga, Zaire, 1976, UniProt Q05127); assay type: binding
[2] = molecular target: GFP 10M2/11M4 EBOV VP35_75-185 (EBOV VP35 oligomerization domain) (Ebola virus - Mayinga, Zaire, 1976, UniProt Q05127); assay: biochemical; assay type: binding
Chain of GFP 10M2/11M4 EBOV VP35_75-185 (EBOV VP35 oligomerization domain) (Q05127 75-185 limits assumed): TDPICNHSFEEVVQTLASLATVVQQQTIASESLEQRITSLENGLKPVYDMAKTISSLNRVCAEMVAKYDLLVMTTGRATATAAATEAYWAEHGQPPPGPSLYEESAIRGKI

Chain of EBOV VP35_75-185 (native, non GFP-tagged) (Q05127 75-185 limits assumed): as above

Compound | Tm at 100 μM compound (70.8 at 0 μM) [1] [°C] | IC50 [2] [µM]
O=c1c(O)c(-c2cc(O)c(O)c(O)c2)oc2cc(O)cc(O)c12 [Myricetin] | 73.5 | 64.4
Brc1c(Br)c(Br)c2[nH]nnc2c1Br [TBBT, 4,5,6,7-Tetrabromobenzotriazole] | 66.9 | 32.5
